Test results reported in patent publication US6737383B1, “Herbicidal oxadiazolidines” (priority 1999, dated 2004).

Tests used:
surinam grass = assay: Test B pre/postemergence surinam grass; assay type: in vivo, Brachiaria decumbens
Method in brief: (§1)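 Herbicidal effect was estimated by eye on a ten-point control scale after plants spent twelve to sixteen days in a greenhouse following soil or foliar treatment. Foliar sprays targeted plants at one to four leaves; all doses were formulated in a non-phytotoxic solvent with surfactant.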

corn = assay: Test B pre/postemergence corn; assay type: in vivo, Zea mays
Method in brief: as §1

cocklebur = assay: Test B pre/postemergence cocklebur; assay type: in vivo, Xanthium strumarium
Method in brief: as §1

velvetleaf = assay: Test B pre/postemergence velvetleaf; assay type: in vivo, Abutilon theophrasti
Method in brief: as §1

sugar beet = assay: Test B pre/postemergence sugar beet; assay type: in vivo, Beta vulgaris
Method in brief: as §1

purple nutsedge = assay: Test B pre/postemergence purple nutsedge; assay type: in vivo, Cyperus rotundus
Method in brief: as §1

wheat = assay: Test B pre/postemergence wheat; assay type: in vivo, Triticum aestivum
Method in brief: as §1

giant foxtail = assay: Test B pre/postemergence giant foxtail; assay type: in vivo, Setaria faberii
Method in brief: as §1

blackgrass = assay: Test B pre/postemergence blackgrass; assay type: in vivo, Alopecurus myosuroides
Method in brief: as §1

bedstraw = assay: Test B pre/postemergence bedstraw; assay type: in vivo, Galium aparine; settings: Preemergence; for Plant response rating, Bedstraw: Rate 125 g/ha
Method in brief: as §1

morningglory = assay: Test B pre/postemergence morningglory; assay type: in vivo, Ipomoea hederacea
Method in brief: as §1

crabgrass = assay: Test B pre/postemergence crabgrass; assay type: in vivo, Digitaria sanguinalis
Method in brief: as §1

soybean = assay: Test B pre/postemergence soybean; assay type: in vivo, Glycine max
Method in brief: as §1

wild oat = assay: Test B pre/postemergence wild oat; assay type: in vivo, Avena fatua
Method in brief: as §1

pigweed = assay: Test B pre/postemergence pigweed; assay type: in vivo, Amaranthus retroflexus
Method in brief: as §1

rape = assay: Test B pre/postemergence rape; assay type: in vivo, Brassica napus
Method in brief: as §1

[1] = Preemergence, Rate 62 g/ha, scale of 0 to 10 where 0 is no effect and 10 is complete control
[2] = Preemergence, Rate 125 g/ha, scale of 0 to 10 where 0 is no effect and 10 is complete control
[3] = Preemergence, Rate 250 g/ha, scale 0 (no effect) to 10 (complete control)
[4] = Rate 500 g/ha, Preemergence, scale 0 to 10 (0 no effect, 10 complete control)
[5] = scale of 0 to 10 where 0 is no effect and 10 is complete control
[6] = Rate 250 g/ha, scale 0 (no effect) to 10 (complete control)
[7] = Rate 500 g/ha, scale 0 to 10 (0 no effect, 10 complete control)
[8] = Postemergence, Rate 125 g/ha, scale of 0 to 10 where 0 is no effect and 10 is complete control
[9] = Postemergence, Rate 1000 g/ha, scale 0 to 10 (0 no effect, 10 complete control)
[10] = Rate 250 g/ha, Postemergence, scale 0 to 10, 0 is no effect, 10 is complete control
[11] = Rate 500 g/ha, Postemergence, scale 0 to 10, 0 is no effect, 10 is complete control
[12] = Rate 1000 g/ha, Preemergence, scale 0 to 10 (0 no effect, 10 complete control)

Structure (SMILES): CC(C)N(C(=O)n1oc(=O)n(C(C)C(=S)N(C)C)c1=O)c1ccc(Cl)cc1 (stereo not drawn) [Compound 733]
- B. signalgrass plant response rating (surinam grass; [1]): 6
- Plant response rating, B. signalgrass (surinam grass; [2]): 6
- B. signalgrass plant response rating (surinam grass; [3]): 8
- B. signalgrass plant response rating (surinam grass; [4]): 10
- Corn plant response rating (corn; [1]): 0
- Plant response rating, Corn (corn; [2]): 0
- Corn plant response rating (corn; [3]): 0
- Corn plant response rating (corn; [4]): 0
- Cocklebur plant response rating (cocklebur; [1]): 0
- Plant response rating, Cocklebur (cocklebur; [2]): 0
- Cocklebur plant response rating (cocklebur; [3]): 0
- Cocklebur plant response rating (cocklebur; [4]): 0
- Velvetleaf plant response rating (velvetleaf; [1]): 0
- Plant response rating, Velvetleaf (velvetleaf; [2]): 0
- Velvetleaf plant response rating (velvetleaf; [3]): 0
- Velvetleaf plant response rating (velvetleaf; [4]): 1
- Sugarbeets plant response rating (sugar beet; [1]): 0
- Plant response rating, Sugarbeets (sugar beet; [2]): 0
- Sugarbeets plant response rating (sugar beet; [3]): 0
- Sugarbeets plant response rating (sugar beet; [4]): 0
- Nutsedge plant response rating (purple nutsedge; [1]): 0
- Plant response rating, Nutsedge (purple nutsedge; [2]): 0
- Nutsedge plant response rating (purple nutsedge; [3]): 0
- Wheat plant response rating (wheat; [1]): 0
- Plant response rating, Wheat (wheat; [2]): 0
- Wheat plant response rating (wheat; [3]): 0
- Wheat plant response rating (wheat; [4]): 0
- Giant foxtail plant response rating (giant foxtail; [1]): 3
- Plant response rating, Giant foxtail (giant foxtail; [2]): 6
- Giant foxtail plant response rating (giant foxtail; [3]): 9
- Giant foxtail plant response rating (giant foxtail; [4]): 9
- Blackgrass plant response rating (blackgrass; [1]): 4
- Plant response rating, Blackgrass (blackgrass; [2]): 7
- Blackgrass plant response rating (blackgrass; [3]): 8
- Blackgrass plant response rating (blackgrass; [4]): 10
- Bedstraw plant response rating (bedstraw; Rate 62 g/ha, scale of 0 to 10 where 0 is no effect and 10 is complete control): 0
- Plant response rating, Bedstraw (bedstraw; [5]): 0
- Bedstraw plant response rating (bedstraw; [6]): 0
- Bedstraw plant response rating (bedstraw; [7]): 0
- Morningglory plant response rating (morningglory; [1]): 1
- Plant response rating, Morningglory (morningglory; [2]): 1
- Morningglory plant response rating (morningglory; [3]): 2
- Morningglory plant response rating (morningglory; [4]): 2
- Crabgrass plant response rating (crabgrass; [1]): 2
- Plant response rating, Crabgrass (crabgrass; [2]): 5
- Crabgrass plant response rating (crabgrass; [3]): 9
- Crabgrass plant response rating (crabgrass; [4]): 9
- Soybean plant response rating (soybean; [1]): 0
- Plant response rating, Soybean (soybean; [2]): 0
- Soybean plant response rating (soybean; [3]): 0
- Soybean plant response rating (soybean; [4]): 0
- Wild oats plant response rating (wild oat; [1]): 2
- Plant response rating, Wild oats (wild oat; [2]): 2
- Wild oats plant response rating (wild oat; [3]): 2
- Wild oats plant response rating (wild oat; [4]): 8
- Redroot pigweed plant response rating (pigweed; [1]): 0
- Plant response rating, Redroot pigweed (pigweed; [2]): 0
- Redroot pigweed plant response rating (pigweed; [3]): 5
- Redroot pigweed plant response rating (pigweed; [4]): 7
- Rape plant response rating (rape; [1]): 0
- Plant response rating, Rape (rape; [2]): 0
- Rape plant response rating (rape; [3]): 3
- Rape plant response rating (rape; [4]): 5

Structure (SMILES): CCOP(=O)(Cn1c(=O)on(C(=O)N(c2ccc(F)cc2F)C(C)C)c1=O)OCC [Compound 736]
- B. signalgrass plant response rating (surinam grass; [8]): 0
- B. signalgrass plant response rating (surinam grass; [9]): 7
- Plant response rating, B. signalgrass (surinam grass; [2]): 3
- B. signalgrass plant response rating (surinam grass; [3]): 3
- B. signalgrass plant response rating (surinam grass; [10]): 0
- B. signalgrass plant response rating (surinam grass; [11]): 0
- B. signalgrass plant response rating (surinam grass; [4]): 8
- Plant response rating, B. signalgrass (surinam grass; [12]): 9
- Corn plant response rating (corn; [8]): 4
- Corn plant response rating (corn; [9]): 4
- Plant response rating, Corn (corn; [2]): 2
- Corn plant response rating (corn; [3]): 2
- Corn plant response rating (corn; [10]): 3
- Corn plant response rating (corn; [11]): 4
- Corn plant response rating (corn; [4]): 2
- Plant response rating, Corn (corn; [12]): 9
- Cocklebur plant response rating (cocklebur; [8]): 0
- Cocklebur plant response rating (cocklebur; [9]): 10
- Plant response rating, Cocklebur (cocklebur; [2]): 0
- Cocklebur plant response rating (cocklebur; [3]): 2
- Cocklebur plant response rating (cocklebur; [10]): 0
- Cocklebur plant response rating (cocklebur; [11]): 3
- Cocklebur plant response rating (cocklebur; [4]): 2
- Plant response rating, Cocklebur (cocklebur; [12]): 2
- Velvetleaf plant response rating (velvetleaf; [8]): 2
- Plant response rating, Velvetleaf (velvetleaf; [2]): 0
- Velvetleaf plant response rating (velvetleaf; [3]): 0
- Velvetleaf plant response rating (velvetleaf; [10]): 2
- Velvetleaf plant response rating (velvetleaf; [11]): 3
- Velvetleaf plant response rating (velvetleaf; [4]): 4
- Plant response rating, Velvetleaf (velvetleaf; [12]): 3
- Sugarbeets plant response rating (sugar beet; [8]): 0
- Plant response rating, Sugarbeets (sugar beet; [2]): 0
- Sugarbeets plant response rating (sugar beet; [3]): 0
- Sugarbeets plant response rating (sugar beet; [10]): 0
- Sugarbeets plant response rating (sugar beet; [11]): 0
- Sugarbeets plant response rating (sugar beet; [4]): 3
- Plant response rating, Sugarbeets (sugar beet; [12]): 5
- Nutsedge plant response rating (purple nutsedge; [8]): 0
- Nutsedge plant response rating (purple nutsedge; [9]): 5
- Plant response rating, Nutsedge (purple nutsedge; [2]): 0
- Nutsedge plant response rating (purple nutsedge; [3]): 0
- Nutsedge plant response rating (purple nutsedge; [10]): 0
- Nutsedge plant response rating (purple nutsedge; [11]): 2
- Nutsedge plant response rating (purple nutsedge; [4]): 10
- Plant response rating, Nutsedge (purple nutsedge; [12]): 8
- Wheat plant response rating (wheat; [8]): 2
- Plant response rating, Wheat (wheat; [2]): 3
- Wheat plant response rating (wheat; [3]): 3
- Wheat plant response rating (wheat; [10]): 2
- Wheat plant response rating (wheat; [11]): 2
- Wheat plant response rating (wheat; [4]): 8
- Plant response rating, Wheat (wheat; [12]): 9
- Giant foxtail plant response rating (giant foxtail; [8]): 2
- Giant foxtail plant response rating (giant foxtail; [9]): 6
- Plant response rating, Giant foxtail (giant foxtail; [2]): 8
- Giant foxtail plant response rating (giant foxtail; [3]): 9
- Giant foxtail plant response rating (giant foxtail; [10]): 2
- Giant foxtail plant response rating (giant foxtail; [11]): 7
- Giant foxtail plant response rating (giant foxtail; [4]): 9
- Plant response rating, Giant foxtail (giant foxtail; [12]): 8
- Blackgrass plant response rating (blackgrass; [8]): 0
- Blackgrass plant response rating (blackgrass; [9]): 7
- Plant response rating, Blackgrass (blackgrass; [2]): 2
- Blackgrass plant response rating (blackgrass; [3]): 4
- Blackgrass plant response rating (blackgrass; [10]): 2
- Blackgrass plant response rating (blackgrass; [11]): 3
- Blackgrass plant response rating (blackgrass; [4]): 9
- Plant response rating, Blackgrass (blackgrass; [12]): 10
- Plant response rating, Bedstraw (bedstraw; [5]): 0
- Bedstraw plant response rating (bedstraw; [6]): 0
- Bedstraw plant response rating (bedstraw; [7]): 8
- Morningglory plant response rating (morningglory; [8]): 6
- Morningglory plant response rating (morningglory; [9]): 7
- Plant response rating, Morningglory (morningglory; [2]): 0
- Morningglory plant response rating (morningglory; [3]): 2
- Morningglory plant response rating (morningglory; [10]): 6
- Morningglory plant response rating (morningglory; [11]): 5
- Morningglory plant response rating (morningglory; [4]): 6
- Plant response rating, Morningglory (morningglory; [12]): 6
- Crabgrass plant response rating (crabgrass; [8]): 3
- Crabgrass plant response rating (crabgrass; [9]): 6
- Plant response rating, Crabgrass (crabgrass; [2]): 3
- Crabgrass plant response rating (crabgrass; [3]): 4
- Crabgrass plant response rating (crabgrass; [10]): 3
- Crabgrass plant response rating (crabgrass; [11]): 4
- Crabgrass plant response rating (crabgrass; [4]): 9
- Plant response rating, Crabgrass (crabgrass; [12]): 9
- Soybean plant response rating (soybean; [8]): 3
- Plant response rating, Soybean (soybean; [2]): 0
- Soybean plant response rating (soybean; [3]): 2
- Soybean plant response rating (soybean; [10]): 4
- Soybean plant response rating (soybean; [11]): 3
- Soybean plant response rating (soybean; [4]): 2
- Plant response rating, Soybean (soybean; [12]): 3
- Wild oats plant response rating (wild oat; [8]): 2
- Plant response rating, Wild oats (wild oat; [2]): 2
- Wild oats plant response rating (wild oat; [3]): 9
- Wild oats plant response rating (wild oat; [10]): 3
- Wild oats plant response rating (wild oat; [11]): 3
- Wild oats plant response rating (wild oat; [4]): 9
- Plant response rating, Wild oats (wild oat; [12]): 10
- Redroot pigweed plant response rating (pigweed; [8]): 2
- Redroot pigweed plant response rating (pigweed; [9]): 3
- Plant response rating, Redroot pigweed (pigweed; [2]): 0
- Redroot pigweed plant response rating (pigweed; [3]): 2
- Redroot pigweed plant response rating (pigweed; [11]): 0
- Redroot pigweed plant response rating (pigweed; [4]): 2
- Plant response rating, Redroot pigweed (pigweed; [12]): 2
- Rape plant response rating (rape; [8]): 0
- Rape plant response rating (rape; [9]): 0
- Plant response rating, Rape (rape; [2]): 0
- Rape plant response rating (rape; [3]): 0
- Rape plant response rating (rape; [10]): 0
- Rape plant response rating (rape; [11]): 0
- Rape plant response rating (rape; [4]): 2
- Plant response rating, Rape (rape; [12]): 2
